Test results: patent US12649746B2, “Ketorolaco derivative, pharmaceutical composition and preparation method therefor and use thereof” (NANJING HERON PHARMACEUTICAL SCIENCE AND TECHNOLOGY CO., …, priority 2020, dated 2026)

Assay: Stability study of levorotatory enantiomer of compounds in solvent (MCT)
Assay type: physicochemical
Conditions: MCT solution; for Isomer (%): dextrorotatory form
Method: 2. Test method: the samples were prepared according to Table 2, wherein each sample was dispensed into 10 vials according to the lofting volume, and the samples were lofted according to Table 3.
4. The related substance was determined according to high performance liquid chromatography (General Chapter 0512, China Pharmacopoeia, 2015 Edition).
(1) Chromatographic conditions: the chromatography column was Agilent ZORBAX SB-C8, 4.6 mm×250 mm, 5 μm, and 0.1% phosphoric acid solution-acetonitrile (50:50) was used as a mobile phase; the detection wavelength was […]; the flow rate was 1.0 mL/min; the column temperature was 40° C., and linear gradient elution was performed according to the following table;
(§1) (2) Determination method: an appropriate amount of the product was weighed precisely, a diluent (absolute ethanol) was added and shaken to dissolve, and quantitatively diluted to give a solution containing 0.4 mg per 1 mL, the solution was […] by vortex for 30 s, and filtered with PTFE filter membrane (0.22 μm, JINTENG), and the filtrate was collected as a test sample solution. 10 μL of the solution was weighed precisely and injected into a liquid chromatograph, and a chromatogram was recorded; if an impurity peak existed in the chromatogram of the test sample solution, calculation was performed according to a peak area normalization method to give the target product.
5. Isomer determination was performed according to high performance liquid chromatography (General Chapter 0512, China Pharmacopoeia, 2015 Edition).
(1) Chromatographic conditions: cellulose-tris(3,5-dimethylphenylcarbamate)silica gel was used as filler (Chiralcel OD-H, 250×4.6 mm, 5 μm); n-hexane-isopropanol (90:10) was used as a mobile phase, and isocratic elution was performed for 25 min at a flow rate of 1.0 mL/min; the column temperature was 35° C.; the detection wavelength was 310 nm.
as §1, with “(n-hexane-isopropanol (90:10))” for “(absolute ethanol)”, “about 1.0” for “0.4”, “20” for “10”, “isomer” for “impurity”

Row | SMILES | Ketorolac (%) (5° C., Day 5) | Purity (%) (5° C., Day 5) | Ketorolac (%) (5° C., Day 15) | Purity (%) (5° C., Day 15) | Ketorolac (%) (5° C., Day 30) | Purity (%) (5° C., Day 30) | Ketorolac (%) (5° C., day 0) | Purity (%) (5° C., day 0) | Ketorolac (%) (25° C., Day 5) | Purity (%) (25° C., Day 5) | Ketorolac (%) (25° C., Day 15) | Purity (%) (25° C., Day 15) | Ketorolac (%) (25° C., Day 30) | Purity (%) (25° C., Day 30) | Ketorolac (%) (25° C., day 0) | Purity (%) (25° C., day 0) | Ketorolac (%) (60° C., Day 5) | Purity (%) (60° C., Day 5) | Ketorolac (%) (60° C., Day 15) | Purity (%) (60° C., Day 15) | further results
1 | CCC(OC(=O)OC(C)C)OC(=O)[C@H]1CCn2c(C(=O)c3ccccc3)ccc21 (stereo partly drawn) [N16(S)] | 0.03 | 99.55 | 0.02 | 99.65 | 0.03 | 99.52 | 0.02 | 99.71 | 0.03 | 99.52 | 0.03 | 99.63 | 0.04 | 99.48 | 0.02 | 99.71 | 0.05 | 99.52 | 0.12 | 99.51 | Ketorolac (%) (60° C., Day 30): 0.24%; Purity (%) (60° C., Day 30): 99.27%; Ketorolac (%) (60° C., day 0): 0.02%; Purity (%) (60° C., day 0): 99.71%; Isomer (%) (5° C., Day 5): 2.47%; Isomer (%) (5° C., Day 15): 2.6%; Isomer (%) (5° C., Day 30): 2.58%; Isomer (%) (5° C., day 0): 2.46%; Isomer (%) (25° C., Day 5): 2.47%; Isomer (%) (25° C., Day 15): 2.6%; Isomer (%) (25° C., Day 30): 2.59%; Isomer (%) (25° C., day 0): 2.46%; Isomer (%) (60° C., Day 5): 2.48%; Isomer (%) (60° C., Day 15): 2.61%; Isomer (%) (60° C., Day 30): 2.63%; Isomer (%) (60° C., day 0): 2.46%
2 | CCOC(=O)OC(CC)OC(=O)[C@H]1CCn2c(C(=O)c3ccccc3)ccc21 (stereo partly drawn) [N15(S)] | 0.02 | 99.46 | 0.02 | 99.45 | 0.03 | 99.38 | 0.03 | 99.48 | 0.03 | 99.42 | 0.03 | 99.41 | 0.05 | 99.33 | 0.03 | 99.48 | 0.06 | 99.35 | 0.17 | 99.21 | Ketorolac (%) (60° C., Day 30): 0.35%; Purity (%) (60° C., Day 30): 98.92%; Ketorolac (%) (60° C., day 0): 0.03%; Purity (%) (60° C., day 0): 99.48%; Isomer (%) (5° C., Day 5): 4.58%; Isomer (%) (5° C., Day 15): 4.73%; Isomer (%) (5° C., Day 30): 4.62%; Isomer (%) (5° C., day 0): 4.59%; Isomer (%) (25° C., Day 5): 4.58%; Isomer (%) (25° C., Day 15): 4.72%; Isomer (%) (25° C., Day 30): 4.64%; Isomer (%) (25° C., day 0): 4.59%; Isomer (%) (60° C., Day 5): 4.59%; Isomer (%) (60° C., Day 15): 4.75%; Isomer (%) (60° C., Day 30): 4.63%; Isomer (%) (60° C., day 0): 4.59%
